Article PMC6155662, “Trypanocidal Activity of Quinoxaline 1,4 Di-N-oxide Derivatives as Trypanothione Reductase Inhibitors” (Molecules : A Journal of Synthetic Chemistry and Natural …, 2017)

Experiments:
[1] = tested on: T. cruzi INC-5 epimastigotes; experiment: Viability (MTT) assay on T. cruzi epimastigotes; format: cell-based, Trypanosoma cruzi; conditions: 24 h, mean and SD of triplicate
Protocol: In this study, two strains of T. cruzi isolated in Mexico were used. […] Epimastigotes were cultured in vitro in liver infusion-tryptose (LIT) medium supplemented with 10% heat inactivated fetal bovine serum (FBS) (Gibco) and 100 U/mL penicillin-streptomycin (In vitro S.A.), and incubated at 27 °C. CD1 mice, aged 6–8 weeks, were infected with T. cruzi to obtain bloodstream trypomastigote samples.
Viability assays of T. cruzi epimastigotes using 3-(4,5-dimethylthiazol-2-yl)-2,5-diphenyltetrazolium bromide (MTT) were performed. Briefly, the parasites were harvested during the exponential growth phase for a period of five days. In a 96-well microplate 1x10^6 epimastigotes were deposited in brain-heart infusion (BHI) medium supplemented with 10% FBS and 100 U/mL antibiotic-antifungal mixture (Gibco). […] Each well reached a final volume of 100 µL. Each condition was assessed in triplicate. The microplate was incubated for 24 h at 27 °C in darkness. Afterwards, 10 μL of a 5 mg/mL MTT solution was added and the plate was incubated for 20 h at 27 °C. Then 200 μL of 10% dodecyl sulfate (SDS)/0.1% HCl solution was added to dissolve formazan salts; the plate was incubated an additional 4 h. Finally, the plate was read at 570 nm in a spectrophotometer (Multiskan EX Thermo Electron, Taipei, Taiwan). The amount of viable cells was proportional to the amount of formazan produced. […] Later the results were converted to micromolar units. […] As a […] control, parasites were incubated only in culture medium with a 1% DMSO concentration, corresponding to the highest sample dilution of DMSO [34, 35, 36].

[2] = molecular target: T1, recombinant human glutathione reductase (GR) (Homo sapiens, UniProt P00390); experiment: GR enzyme inhibition (NADPH consumption at 340 nm); format: biochemical; conditions: inhibitor 5-60 μM; 100 µM GSSG; read-out: IC50 against hGR
T1 sequence (P00390 44-522): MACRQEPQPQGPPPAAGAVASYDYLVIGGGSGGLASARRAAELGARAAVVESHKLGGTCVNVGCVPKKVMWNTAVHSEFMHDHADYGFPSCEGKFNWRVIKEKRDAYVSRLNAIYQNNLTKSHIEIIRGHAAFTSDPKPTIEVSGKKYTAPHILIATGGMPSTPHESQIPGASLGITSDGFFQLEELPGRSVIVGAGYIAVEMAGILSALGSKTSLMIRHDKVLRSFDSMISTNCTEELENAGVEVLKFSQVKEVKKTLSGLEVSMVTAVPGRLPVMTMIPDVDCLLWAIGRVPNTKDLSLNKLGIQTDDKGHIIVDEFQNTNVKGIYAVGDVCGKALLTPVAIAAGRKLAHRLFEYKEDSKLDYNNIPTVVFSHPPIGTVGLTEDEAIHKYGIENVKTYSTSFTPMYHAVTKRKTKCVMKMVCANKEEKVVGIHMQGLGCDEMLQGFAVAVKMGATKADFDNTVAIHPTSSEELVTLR
Protocol: Trypanothione disulfide (TS2) and recombinant T. cruzi TR were prepared following published procedures. Recombinant human glutathione reductase (GR) was kindly provided by Dr. Heiner Schirmer, Heidelberg Germany. Stock solutions (5 mM) of the inhibitors were prepared in DMSO. The kinetic analyses were conducted using a Jasco V650 spectrophotometer. All enzymatic tests were performed in polystyrene optical cuvettes (10 × 4 × 45 mm). TR activity was measured at 25 °C in a total volume of 1 mL TR assay buffer (40 mM HEPES, 1 mM EDTA, pH 7.5 [47]) containing 100 μM NADPH and 5–10 mU enzyme in the absence and presence of the inhibitor. Each assay contained a total of 5% DMSO. The reaction was started by adding TS2 and NADPH consumption was followed at 340 nm.
GR activity was measured at 25 °C in a total volume of 1 mL GR assay buffer (20.5 mM KH2PO4, 26.5 mM K2HPO4, 200 mM KCl, 1 mM EDTA, pH 6.9). The assays contained 100 µM NADPH and 5–10 mU GR and varying concentrations of the inhibitor. The reaction was started by adding 100 µM GSSG and the absorption decrease was followed at 340 nm.
Five compound concentrations were used ranging from 100–5 μM. […] IC50 values were calculated using the four-parameter equation model 205 and the option “unlock” from the XLfit add-in (IDBS, Guildford, United Kingdom) for Excel (Microsoft Corporation, Redmond, WA, USA).

IC50 [1]: 2.42 ± 0.5 µM | IC50 ([1]; Trypanosoma cruzi): < 2.5 µM | IC50 [2]: 50 µM
SMILES: CC(C)OC(=O)c1ccc2c(c1)[n+]([O-])c(C(=O)C(C)C)c(C(F)(F)F)[n+]2[O-] [Compound T-085, Isopropyl 2-isobutyryl-3-trifluoromethylquinoxaline-7-carboxylate 1,4-di-N-oxide]
